The values that follow come from ChEMBL document CHEMBL1150244, “Periglaucines A-D, anti-HBV and -HIV-1 alkaloids from Pericampylus glaucus” (J Nat Prod, 2008).

The nature of data set [1]: Selectivity index, ratio of CC50 for human HepG2.2.15 cells to IC50 for HBV e-antigen secretion. It counts as functional.
Data set [2] in a line: Cytotoxicity against human C8166 cells after 72 hrs by MTT assay. Format: cell-based. Background: Tetrazolium assays rely on reduction of a dye to a coloured formazan, in cell work by metabolically active cells.
Data set [3] in a line: Selectivity index, ratio of CC50 for human HepG2.2.15 cells to IC50 for HBV surface antigen secretion. It counts as functional.
A short description of data set [4]: Selectivity index, ratio of CC50 for human C8166 cells to EC50 for HIV1. It counts as toxicity, cell-based. The settings on record: read-out: Ratio CC50/EC50.
Data set [5] deals with Hepatitis B virus. In words: Antiviral activity against HBV assessed as inhibition of viral surface antigen secretion in HepG2.2.15 cells by ELISA. Format: functional, organism-based. As to conditions: HepG2 2.2.15. Background: In an ELISA, binding on a coated surface is turned into a signal by an enzyme label.
In data set [6] the test system is Human immunodeficiency virus 1. The experiment in a line: Antiviral activity against HIV1 in human C8166 cells assessed as protection against viral-induced cytopathic effect by syncytium reduction assay. It counts as functional, organism-based. The settings on record: Human immunodeficiency virus 1, C8166. On the technique in general: Damage to the host cells serves as the signal in cytopathic effect assays.

The subject of data set [7] is Hepatitis B virus. The experiment in a line: Antiviral activity against HBV assessed as inhibition of viral e-antigen secretion in HepG2.2.15 cells by ELISA. It counts as functional, organism-based. The settings on record: HepG2 2.2.15.
Data set [8] in a line: Cytotoxicity against human HepG2.2.15 cells by MTT assay. Format: cell-based, HepG2 2.2.15.

Take `COc1cc2c(cc1OC)[C@@H]1Cc3ccc(OC)c(OC)c3C(=O)N1CC2`: the “Ratio CC50/IC50” value in data set [1] is on record as less than 1; in data set [3], 22.4. This molecule registered a CC50 at 72 h in data set [2] of 307 µM. Moreover, in data set [4], the selectivity ratio turned out to be 18.8. In addition, the IC50 is 140 µM in data set [5] and greater than 7470 µM in data set [7]. Besides, the EC50 in data set [6] was 14.1 µM. Besides, in data set [8], the CC50 is 3000 µM.
In the case of `COc1ccc2c(c1OC)C(=O)N1CCc3cc4c(cc3[C@@H]1C2)OCO4`, the half-inhibitory concentration (IC50) in data set [5] and in data set [7] was greater than 3400 µM each time. The same molecule returned a CC50 in data set [8] greater than 3400 µM.
The molecule `COc1c(OC)c2c3c(nccc3c1OC)-c1cc(O)ccc1-2` [IMERUBRINE] yielded a CC50 at 72 h in data set [2] of 493 µM. In addition, the “Ratio CC50/IC50” value in data set [3] is greater than 4.17. Further, the selectivity ratio in data set [4] turned out to be 45.7. Also, the IC50 in data set [5] was 930 µM; in data set [7], greater than 3880 µM. The 50% effective concentration (EC50) in data set [6] turned out to be 10.9 µM. In addition, in data set [8], the CC50 is greater than 3880 µM.
On to `CO[C@@H]1C(=O)C[C@]23CCN(C)[C@@]24C[C@@H](O[C@]14OC)c1cc2c(cc13)OCO2` [PERIGLAUCINE A], for which the entries for the “Ratio CC50/IC50” value in data set [1] and in data set [3] were less than 1 and 2.85, respectively. In data set [2], this molecule showed a CC50 at 72 h greater than 536 µM. Besides, the selectivity ratio in data set [4] was determined as 4.03. For the same molecule, the values for the IC50 in data set [5] and in data set [7] were 1040 µM and 3410 µM, respectively. The EC50 in data set [6] is 204 µM. The same molecule came in with a CC50 in data set [8] of 2960 µM.
As for `CO[C@H]1C(=O)C[C@]23CCN(C)[C@@]24C[C@@H](O[C@]14OC)c1cc2c(cc13)OCO2` [PERIGLAUCINE B], the “Ratio CC50/IC50” value in data set [1] is recorded as less than 1; in data set [3], 1.36. The same molecule had a CC50 at 72 h in data set [2] greater than 536 µM. In data set [4], the selectivity ratio was 1.61. Besides, the results for the IC50 in data set [5] and in data set [7] were 470 µM and 3090 µM, respectively. Also, in data set [6], the half-maximal effective concentration (EC50) was 389 µM. In addition, in data set [8], the CC50 came out at 640 µM.
In the case of `CO[C@@H]1C(=O)C[C@]23CC(=O)N(C)[C@@]24C[C@@H](O[C@]14OC)c1cc2c(cc13)OCO2` [PERIGLAUCINE C], the entries for the “Ratio CC50/IC50” value in data set [1] and in data set [3] were less than 1 and 1.37, respectively. Also, the CC50 at 72 h in data set [2] was greater than 516 µM. For the same molecule, the selectivity ratio in data set [4] came out at 3.29. For the same molecule, the IC50 in data set [5] was 1720 µM; in data set [7], greater than 3690 µM. Also, the EC50 in data set [6] turned out to be 162 µM. In data set [8], this molecule yielded a CC50 of 2360 µM.
Regarding `CO[C@@H]1C(=O)C[C@]23C[C@H](CC(C)=O)N(C)[C@@]24C[C@@H](O[C@]14OC)c1cc2c(cc13)OCO2` [PERIGLAUCINE D], the “Ratio CC50/IC50” value in data set [1] is recorded as less than 1; in data set [3] it was 3.07. In data set [2], this molecule yielded a CC50 at 72 h greater than 466 µM. Also, the selectivity ratio in data set [4] was determined as 1.65. In addition, the values for the IC50 in data set [5] and in data set [7] were 670 µM and 3010 µM, respectively. The EC50 in data set [6] was found to be 334 µM. The molecule further returned a cytotoxic concentration (CC50) in data set [8] of 2060 µM.
For the molecule `Cc1cn([C@H]2C[C@H](N=[N+]=[N-])[C@@H](CO)O2)c(=O)[nH]c1=O` [ZIDOVUDINE], the selectivity ratio in data set [4] came to 471. Also, the EC50 in data set [6] is 0.0108 µM.

Broadly, the CC50 is the concentration that lowers cell viability or growth by half. A low value points to greater toxicity to the cells. As usually defined, the IC50 is the midpoint of a concentration-inhibition curve. As usually defined, the EC50 is the concentration at which the effect is half-maximal.
